Test results taken from ChEMBL document CHEMBL3987221, “The Australian National University Dept Of Immunology Pathogen Box Compounds Screened” (2018).
Active and inactive are the calls of the source. The rule behind the calls is not given here.

Experiments:
[1] = target: T1, Ferrochelatase, mitochondrial (Homo sapiens) (UniProt P22830); conditions: at 10 µM
T1 sequence (whole entry): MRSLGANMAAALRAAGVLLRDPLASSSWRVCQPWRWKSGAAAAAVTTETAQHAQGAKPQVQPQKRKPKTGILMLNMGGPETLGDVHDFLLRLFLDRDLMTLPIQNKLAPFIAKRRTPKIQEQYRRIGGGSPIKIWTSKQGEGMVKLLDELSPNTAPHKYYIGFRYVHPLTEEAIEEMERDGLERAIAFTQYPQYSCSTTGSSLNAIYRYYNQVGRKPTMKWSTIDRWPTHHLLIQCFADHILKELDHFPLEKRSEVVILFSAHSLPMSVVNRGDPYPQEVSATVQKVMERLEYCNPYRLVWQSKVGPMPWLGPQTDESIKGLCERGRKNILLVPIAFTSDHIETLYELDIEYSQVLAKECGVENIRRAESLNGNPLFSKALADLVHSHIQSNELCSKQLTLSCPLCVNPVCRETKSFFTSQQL
Description: Compound was evaluated for the inhibition of human FECH at 10uM

[2] = target: T2, Porphobilinogen deaminase (Homo sapiens) (UniProt P08397); conditions: at 100 µM
T2 sequence (whole entry): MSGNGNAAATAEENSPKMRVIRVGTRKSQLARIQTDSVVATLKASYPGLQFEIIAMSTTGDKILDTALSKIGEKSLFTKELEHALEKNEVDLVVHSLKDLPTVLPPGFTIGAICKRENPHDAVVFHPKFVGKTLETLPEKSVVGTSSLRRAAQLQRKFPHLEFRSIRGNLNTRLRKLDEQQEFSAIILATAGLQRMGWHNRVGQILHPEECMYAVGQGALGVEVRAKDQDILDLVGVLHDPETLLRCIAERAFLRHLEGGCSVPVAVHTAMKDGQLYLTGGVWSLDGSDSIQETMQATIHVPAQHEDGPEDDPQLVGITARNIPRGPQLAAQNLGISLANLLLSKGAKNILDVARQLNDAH
Description: Compound was evaluated for the inhibition of human HMBS at 100uM

| SMILES | inhibition [1] | inhibition [2] |
| --- | --- | --- |
| O=C(NC1CCN(c2ccnc3ccccc23)C1)c1cccc(C(F)(F)F)c1 (configuration not stated) | inactive | inactive |
| Nc1ncc(Br)cc1-c1nc2cc(Cl)cnc2[nH]1 | inactive | inactive |
| N#CCN(CCCCN1CCN(c2ccc(F)cc2)CC1)C(=O)OCc1ccccc1 | inactive | inactive |
| O=C(Nc1cccc(-c2ccc(NCCCN3CCCC3)nc2)c1)c1ccccc1 | inactive | inactive |
| Cc1nn2c(=O)c3c([nH]c2c1-c1ccc(Cl)cc1)CCCC3 | inactive | inactive |
| c1ccc(-c2cc(N3CCCCC3)c3ccccc3n2)nc1 | inactive | inactive |
| Cc1ccc2oc(-c3cc(NC(=O)Cc4ccccc4)ccc3Cl)nc2c1 | inactive | inactive |
| Cc1cc(NC(=O)c2ccc(Oc3ccc(Cl)cc3O)o2)no1 | inactive | inactive |
| COc1ccc(-c2cnc3cnc(-c4cccc(OC(C)C)c4)cn23)cc1 | inactive | inactive |
| CCCCCCCCCCCCCCCCOP(=O)([O-])OCC[N+](C)(C)C | inactive | inactive |
| CCC(=O)Nc1ccccc1C(=O)Nc1ccccn1 | inactive | inactive |
| C[C@]1(O)C[C@@H](c2nc(-c3ccc4ccc(-c5ccccc5)nc4c3)c3c(N)nccn32)C1 | inactive | inactive |
| O=C1Nc2ccc(Br)cc2C12NCCc1c2[nH]c2ccccc12 (configuration not stated) | inactive | inactive |
| Cc1ccc2[nH]c(C3CCCNC3)c(-c3ccncc3)c2c1 (configuration not stated) | inactive | inactive |
| CCC(Sc1nc2ccccc2o1)C(=O)Nc1nnc(C)s1 (configuration not stated) | inactive | inactive |
| c1ccc(-c2nc(NC3CCCCC3)cc(C3CC3)n2)nc1 | inactive | inactive |
| CCCCc1ccc(NC(=O)Nc2ccc(O[C@H]3CCCC[C@@H]3N(C)c3ccccc3)c(F)c2)cc1 | inactive | inactive |
| Cc1cc(NCCc2ccccc2)nc(NC(=N)Nc2ccc(Cl)cc2)n1 | inactive | inactive |
| CCN(CC)CCCN1CCN(C(=O)c2cccc(-c3noc(C(F)(F)F)n3)c2)CC1 | inactive | inactive |
| Nc1ccc2ncnc(Nc3ccc(OCc4cccc(F)c4)c(Cl)c3)c2c1 | inactive | inactive |
| CC(Oc1cccc(Cl)c1)C(=O)Nc1ccc2oc(-c3ccncc3)nc2c1 (configuration not stated) | inactive | inactive |
| O=C(NCCN1CCCC1)c1cc(NCCN2CCOCC2)nc2ccc(Cl)cc12 | inactive | inactive |

| SMILES | inhibition [1] | inhibition [2] |
| --- | --- | --- |
| FC(F)(F)c1cnc(Sc2nnc(-c3ccncc3)o2)c(Cl)c1 | inactive | inactive |
| O=C(c1ccco1)N(CCCn1ccnc1)c1nc2c(Cl)cccc2s1 | inactive | inactive |
| NCCCC(N)(C(=O)O)C(F)F (configuration not stated) | inactive | inactive |
| Cc1ccc(-c2nc(CN(Cc3ccccn3)C(C)C)cs2)o1 | inactive | inactive |
| CC1=Nc2ccc(Cl)cc2C(c2ccccc2)N1CCNC(=O)CN(C)C (configuration not stated) | inactive | inactive |
| Cc1cccc(Cn2ccc(NC(=O)c3ccc4c(c3)OCO4)n2)c1 | inactive | inactive |
| CCS(=O)(=O)N(Cc1ccco1)Cc1cc2ccc(C)cc2nc1O | inactive | inactive |
| Cc1ccc(S(=O)(=O)Nc2ccc(CN3CCN(C(=O)c4cccc(C#N)c4)CC3)cc2)cc1 | inactive | inactive |
| Cc1ccc2c(c1C)NC(=O)C21NN=C(c2ccccc2)S1 (configuration not stated) | inactive | inactive |
| O=C(N[C@H](Cc1ccccc1)C(=O)Nc1ccccc1N1CCOCC1)c1cccs1 | inactive | inactive |
| COc1cccc2c(C)nc(N=C(N)N)nc12 | inactive | inactive |
| O=C(NCc1ccoc1)N1CCN(Cc2ccc3c(c2)OCO3)CC1 | inactive | inactive |
| N#Cc1nc(-c2ccccc2F)oc1NCCc1ccccc1 | inactive | inactive |
| Nc1cccnc1Nc1ccc(Cl)cc1 | inactive | inactive |
| CC(C)(C)n1nc(Cc2ccc(F)c(Cl)c2)c2c(N)ncnc21 | inactive | inactive |
| COc1ccc(Cn2cnc3c(-c4ccco4)nc(Cl)nc32)cc1 | inactive | inactive |
| Cc1nnc(NC(=O)c2cn(-c3ccccc3)nc2-c2ccccc2C)o1 | inactive | inactive |
| CC1COC2(CCN(c3nc(=O)c4cc(C(F)(F)F)cc([N+](=O)[O-])c4s3)CC2)O1 (configuration not stated) | inactive | inactive |
| COc1cccc(OCC(=O)c2ccc(Br)cc2)c1 | inactive | inactive |
| CC(C)c1ncc(-c2ccncc2)c([C@H]2CC[C@H](CNC(=O)c3cccnc3)CC2)n1 | inactive | inactive |
| COc1ccc(Oc2ccc([C@@H](C)N(C)c3ncc4c(N)nc(N)nc4n3)cc2)cc1 | inactive | inactive |
| COCC(C)NC(=O)CSc1ncnc2sc(-c3ccccc3)cc12 (configuration not stated) | inactive | inactive |

| SMILES | inhibition [1] | inhibition [2] |
| --- | --- | --- |
| Cc1nc(-c2ccccn2)nc(NCCc2ccc(S(C)(=O)=O)cc2)c1Cl | inactive | inactive |
| CCOc1ccccc1C(=O)Nc1cccc(-c2nc3ncccn3c2C)c1 | inactive | inactive |
| Cc1ccc(NC(=O)CC2COc3ccccc3O2)cc1Cl (configuration not stated) | inactive | inactive |
| Cc1ccc(-c2cc(C(=O)Nc3cccnc3)c3cc(Br)ccc3n2)cc1 | inactive | inactive |
| COc1cc(OC)cc(C(=O)NCC2Cc3cc(Cl)cc(-c4ccncc4)c3O2)c1 (configuration not stated) | inactive | inactive |
| Nc1nccc2ccc(Oc3ccncc3)cc12 | inactive | inactive |
| c1ccc2c(c1)CN(CC1CC1)CC1(CCN(Cc3c[nH]c4cnccc34)CC1)O2 | inactive | inactive |
| CCCCN(CCCC)c1c(C#N)cc(S(=O)(=O)Nc2ccccc2)cc1C#N | inactive | inactive |
| OC[C@H]1O[C@@H](n2c3ccc(Cl)cc3c3c(-c4cc5ccccc5o4)ncnc32)C(O)[C@H]1O (some centres not stated) | inactive | inactive |
| COc1ccc(C2=NN(C3CCCCCC3)C(=O)C2(C)C)cc1OCCCCOc1ccc(-c2nn[nH]n2)cc1 | inactive | inactive |
| CC(c1cc(Cl)cc(Cl)c1)N(C)c1ncc2c(N)nc(N)nc2n1 (configuration not stated) | inactive | inactive |
| COc1ccc2nccc(NC(=O)C3CCN(CCc4ccc(Cl)cc4)CC3)c2n1 | inactive | inactive |
| Cc1ccc(NC(=O)c2nc[nH]c2C(=O)Nc2nc3ccccc3[nH]2)c(C)c1 | inactive | inactive |
| COc1ccc(-c2nn(C(C)C)c3ncnc(N)c23)cc1OC | inactive | inactive |
| Nc1ncnc2c1c(Cc1cccc3ccccc13)nn2CC1CCNCC1 | inactive | inactive |
| CO[C@@H]1CN(c2ccc(C#CC3(O)CN4CCC3CC4)c(Cc3ccccc3)n2)C[C@H]1O (some centres not stated) | inactive | inactive |
| O=C(C(Cc1c[nH]c2ccccc12)NS(=O)(=O)c1ccc(Cl)cc1)N1CCCCC1 (configuration not stated) | inactive | inactive |
| CC(C(=O)Nc1ccc2oc(-c3ccncc3)nc2c1)c1ccccc1 (configuration not stated) | inactive | inactive |
| c1ccc(Oc2ccc(-c3cc(N4CCNCC4)[nH]n3)cc2)cc1 | inactive | inactive |
| CC(=O)NC[C@@H]1CN(c2ccc(N3CCOCC3)c(F)c2)C(=O)O1 | inactive | inactive |
| NCCC(O)C(=O)N[C@@H]1C[C@H](N)[C@@H](OC2O[C@H](CN)[C@@H](O)[C@H](O)[C@H]2O)[C@H](O)C1OC1O[C@H](CO)[C@@H](O)[C@H](N)[C@H]1O (some centres not stated) | inactive | inactive |
| CNCCC(Oc1ccc(C(F)(F)F)cc1)c1ccccc1 (configuration not stated) | inactive | inactive |
